Source: patent publication EP1171440B1, “SUBSTITUTED-3-CYANO-[1.7],[1.5], AND [1.8]-NAPHTHYRIDINE INHIBITORS OF TYROSINE KINASES” (Wyeth Holdings Corporation, priority 1999, dated 2000)
≈ marks a conversion by molar mass, not a printed value.

Columns and labels:
[1] = tested on: MCF7; assay: Inhibition of Cancer Cell Growth as Measured by Cell Number (Sulforhodamine B); format: cell-based; details: Homo sapiens, 48 hours exposure
Experimental: (§1) Human tumor cell lines were plated in 96-well plates (250 µl/well, 1-6 x 10^4 cells/ml) in RPMI 1640 medium, containing 5% FBS (Fetal Bovine Serum). […] After 48 hours exposure to test compounds, cells were fixed with trichloroacetic acid, and stained with Sulforhodamine B. After washing with trichloroacetic acid, bound dye was solubilized in 10 mM Tris base and optical density was determined using a plate reader. Under conditions of the assay the optical density is proportional to the number of cells in the well. IC50s (concentrations causing 50% inhibition of cell growth) were determined from the growth inhibition plots. The test procedure is described in details by Philip Skehan et. al, J.Natl. Canc. Inst., 82, 1107-1112 (1990). […] Information about some of the cell lines used in these test procedures is available from the American […]: Cell Lines and Hybridomas, 1994 Reference Guide, 8th Edition. The Her2Neu cell line is a 3T3 line that has bbeen transfected with Her2 receptor kinase.

[2] = biological target: T1, EGF-R Kinase (recombinant enzyme) (Homo sapiens, UniProt P00533); assay: Inhibition of Epidermal Growth Factor Receptor Kinase (EGF-R) using recombinant enzyme, RR-SRC peptide phosphorylation with 33P-ATP; format: biochemical; details: for IC50: recombinant His-tagged cytoplasmic domain of EGFR, RR-SRC peptide, 90 min at room temperature, read-out: IC50
T1 construct: containing the EGFR cDNA encoding amino acids 645 - 1186 preceded by Met-Ala-(His)6; made in house; host or cells: Sf9 insect cells infected with recombinant baculovirus vHcEGFR52
T1 sequence (P00533 669-1210): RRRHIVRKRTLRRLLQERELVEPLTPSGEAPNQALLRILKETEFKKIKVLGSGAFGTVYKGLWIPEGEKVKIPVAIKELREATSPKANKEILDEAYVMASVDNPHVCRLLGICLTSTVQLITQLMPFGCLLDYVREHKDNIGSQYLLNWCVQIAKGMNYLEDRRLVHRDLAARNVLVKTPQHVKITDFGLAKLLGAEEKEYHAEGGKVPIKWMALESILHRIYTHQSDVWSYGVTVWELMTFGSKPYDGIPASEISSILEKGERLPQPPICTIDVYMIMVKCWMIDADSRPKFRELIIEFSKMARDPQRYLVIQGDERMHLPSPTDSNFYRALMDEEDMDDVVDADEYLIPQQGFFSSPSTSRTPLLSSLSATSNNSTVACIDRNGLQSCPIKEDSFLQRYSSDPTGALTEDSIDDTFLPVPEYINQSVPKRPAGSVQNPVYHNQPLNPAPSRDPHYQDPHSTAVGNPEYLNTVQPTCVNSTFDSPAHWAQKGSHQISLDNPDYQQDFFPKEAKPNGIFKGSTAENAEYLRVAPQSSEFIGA
Experimental: Representative test compounds were evaluated for their ability to inhibit the phosphorylation of the tyrosine residue of a peptide substrate catalyzed by the enzyme epidermal growth factor receptor kinase. […] The enzyme used in this assay is the His-tagged cytoplasmic domain of EGFR. A recombinant baculovirus (vHcEGFR52) was constructed containing the EGFR cDNA encoding amino acids 645 - 1186 preceded by Met-Ala-(His)6 . Sf9 cells in 100 mm plates were infected at an moi of 10 pfu/cell and cells were harvested 48 h post infection. A cytoplasmic extract was prepared using 1% Triton X-100 and applied to Ni-NTA column. After washing the column with 20 mM imidazole, HcEGFR was eluted with 250 mM imidazole (in 50 mM Na2HPO4, pH 8.0, 300 mM NaCl). Fractions collected were dialyzed against 10 mM HEPES, pH 7.0, 50 mM NaCl, 10% glycerol, 1ug/mL antipain and leupeptin and 0.1 mM Pefabloc SC. The protein was frozen in dry ice/methanol and stored -70° C.
Test compounds were made into 10 mg/mL stock solutions in 100% dimethylsulfoxide (DMSO). Prior to experiment, stock solutions were diluted to 500 uM with 100% DMSO and then serially diluted to the desired concentration with HEPES buffer (30 mM HEPES pH 7.4).
For the enzyme reaction, 10 uL of each inhibitor (at various concentrations) were added to each well of a 96-well plate. To this was added 3 uL of enzyme (1:10 dilution in 10mM HEPES, pH 7.4 for final conc. of 1:120). This was allowed to sit for 10 min on ice and was followed by the addition of 5 ul peptide (80 uM final conc.), 10ul of 4X Buffer (Table A), 0.25 uL ^33P-ATP and 12 uL H2O. The reaction was allowed to run for 90 min at room temperature and was followed by spotting the entire volume on to precut P81 filter papers. The filter discs were washed 2X with 0.5% phosphoric acid and radioactivity was measured using a liquid scintillation counter. Table A
The IC50 is the concentration of test compound needed to reduce the total amount of phosphorylated substrate by 50%. The % inhibition of the test compound was determined for at least three different concentrations and the IC50 value was evaluated from the dose response curve. […] CPM(control) is in units of counts per minute and was a number expressing the amount of radiolabeled ATP (γ-^33P) incorporated into the RR-SRC peptide substrate by the enzyme after 90 minutes at room temperature in the absence of test compound as measured by liquid scintillation counting. The CPM values were corrected for the background counts produced by ATP in the absence of the enzymatic reaction. Where it was possible to determine an IC50 value, this is reported in TABLE 1 otherwise the % inhibition at 0.5 µM concentration of test compound is shown in TABLE 1.

[3] = tested on: SW620; assay: Inhibition of Cancer Cell Growth as Measured by Cell Number (Sulforhodamine B); format: cell-based, Human; details: Homo sapiens, SW-620, 48 hours exposure, read-out: IC50
Experimental: (§2) After 48 hours exposure to test compounds, cells were fixed with trichloroacetic acid, and stained with Sulforhodamine B. After washing with trichloroacetic acid, bound dye was solubilized in 10 mM Tris base and optical density was determined using a plate reader. Under conditions of the assay the optical density is proportional to the number of cells in the well. […] The test procedure is described in details by Philip Skehan et. al, J.Natl. Canc. […] The Her2Neu cell line is a 3T3 line that has bbeen transfected with Her2 receptor kinase.

[4] = tested on: A2780S; assay: as above; format: cell-based, Human; details: Homo sapiens, 48 h, 48 hours exposure, read-out: IC50
Experimental: as §2

[5] = tested on: LOX; assay: as above; format: cell-based, Human; details: Homo sapiens, 48 hours exposure, read-out: IC50
Experimental: as §2

[6] = tested on: MDA435; assay: as above; format: cell-based, Human; details: Homo sapiens, MDA435, 48 h, 48 hours exposure, read-out: IC50
Experimental: as §2

[7] = tested on: A431; assay: as above; format: cell-based, Human; details: Homo sapiens, A-431, 48 h, 48 hours exposure, read-out: IC50
Experimental: as §2

[8] = tested on: SKBR3; assay: as above; format: cell-based, Human; details: Homo sapiens, SK-BR-3, 48 hours exposure, read-out: IC50
Experimental: as §2

[9] = tested on: A2780DDP; assay: as above; format: cell-based, Human; details: Homo sapiens, 48 h, 48 hours exposure, read-out: IC50
Experimental: as §2

[10] = tested on: 3T3; assay: as above; format: cell-based; details: Mus musculus, NIH3T3, 48 hours exposure, read-out: IC50
Experimental: as §1

[11] = tested on: Her2Neu; assay: as above; format: cell-based; details: Her2Neu (3T3 line transfected with Her2 receptor kinase); 48 hours exposure
Experimental: as §1

[12] = biological target: T2, KDR; the catalytic domain of the VEGF receptor (Homo sapiens, UniProt P35968); assay: Inhibition of Kinase insert Domain containing Receptor (KDR), radioactive substrate phosphorylation; format: biochemical; details: pH 7.2; substrate copolymer of glutamic acid and tyrosine, E:Y = 4:1
T2 construct: KDR; the catalytic domain of the VEGF receptor
T2 sequence (P35968 834-1162 limits assumed): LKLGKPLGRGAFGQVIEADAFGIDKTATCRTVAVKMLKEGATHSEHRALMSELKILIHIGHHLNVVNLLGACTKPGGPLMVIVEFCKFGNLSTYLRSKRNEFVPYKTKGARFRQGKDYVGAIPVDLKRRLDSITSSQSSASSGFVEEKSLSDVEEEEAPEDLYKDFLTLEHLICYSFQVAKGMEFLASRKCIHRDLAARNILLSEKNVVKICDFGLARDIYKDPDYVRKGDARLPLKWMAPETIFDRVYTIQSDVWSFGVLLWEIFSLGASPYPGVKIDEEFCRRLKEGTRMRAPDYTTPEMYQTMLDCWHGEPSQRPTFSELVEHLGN
Experimental: In this standard pharmacological test procedure, KDR protein is mixed, in the presence or absence of an inhibitor compound, with a substrate peptide to be phosphorylated (a copolymer of glutamic acid and tyrosine, E:Y = 4:1) and other cofactors such as Mg^++ and sodium vanadate (a protein tyrosine phosphatase inhibitor) in an appropriate buffer to maintain pH (7.2). ATP and a radioactive tracer (either P^32- or P^33- labeled ATP) is then add to initiate phosphorylation. After incubation, the radioactive phosphate associated with the acid-insoluble fraction of the assay mixture is then quantified as reflection of substrate phosphorylation. This radioactive format was used to identify inhibitors of KDR tyrosine kinase activity where the IC50 is the concentration of drug that inhibits substrate phosphorylation by 50%.

| IC50 [1] [µg/mL] | IC50 [2] [nM] | IC50 [3] [µg/mL] | IC50 [4] [µg/mL] | IC50 [5] [µg/mL] | IC50 [6] [µg/mL] | IC50 [7] [µg/mL] | IC50 [8] [µg/mL] | IC50 [9] [µg/mL] | IC50 [11] [µg/mL] | inhibition at 0.5 µM ([2]; 0.5 µM concentration of test compound, read-out: % Inhibition @ 0.5) [%] | IC50 [12] [µg/mL] | Structure (SMILES) | IC50 [10] [µg/mL] |
| --- | --- | --- | --- | --- | --- | --- | --- | --- | --- | --- | --- | --- | --- |
| 0.4 (≈ 0.985 µM) | 20 | 0.17 (≈ 0.418 µM) | 0.06 (≈ 0.148 µM) | 0.07 (≈ 0.172 µM) | 0.88 (≈ 2.17 µM) | 0.23 (≈ 0.566 µM) | 0.12 (≈ 0.295 µM) | 0.13 (≈ 0.32 µM) | – | – | – | CC#CC(=O)Nc1cc2c(Nc3cccc(Br)c3)c(C#N)cnc2cn1 [Example 61, But-2-ynoic acid, [4-(3-bromo-phenylamino)-3-cyano-[1.7]-naphthyridin-6-yl]-amide] | – |
| – | 1000 | > 5 | – | – | > 5 | 2.23 (≈ 5.77 µM) | 4.63 (≈ 12 µM) | – | > 5 | 31.3 | – | CN(C)CCOc1cc2c(Nc3ccc(F)c(Cl)c3)c(C#N)cnc2cn1 [Example 74, 4-(3-Chloro-4-fluoro-phenylamino)-6-(2-dimethylamino-ethoxy)-[1.7]naphthyridine-3-carbonitrile] | 4.48 (≈ 11.6 µM) |
| – | – | – | – | – | – | – | – | – | – | – | 33.9 (≈ 115 µM) | Cc1ccc(Nc2c(C#N)cnc3cnc(F)cc23)cc1O [Example 66, 6-Fluoro-4-(3-hydroxy-4-methyl-phenylamino)-[1.7]naphthyridine-3-carbonitrile] | – |
